From the supplement of paper PMC10627819

Legend:
[1] = test system: B. subtilis 168; assay: fitness (endpoint OD595 vs no drug) (fraction); higher = more growth
Outline: (§1)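 Fitness expresses the optical density reached at the stationary-phase transition as a fraction of the robust mean of no-drug control wells. It is capped at 1. Measurements were OD595 every 30 min for 14 h at 37 °C after inoculation of 384-well plates at OD595 0.01 (30 µl, or 55 µl for S. pneumoniae), minus the first reading.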

[2] = test system: S. aureus Newman; assay: as above
Outline: as §1

[3] = test system: S. pneumoniae D39V; assay: as above
Outline: as §1

[4] = test system: B. subtilis 168; assay: Bliss interaction score (quartile over a dose matrix) (fitness difference); higher = more antagonism (negative = synergy)
Outline: (§2)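 Each OD595 reading at entry into stationary phase was scaled to the robust mean of the untreated wells on its plate, with a ceiling of 1. These ratios define fitness, and single-drug fitness was inferred from combinations. The Bliss score compares observed fitness with the product-based expectation and is reported as quartiles across all replicate types, technical, biological and donor/recipient.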

[5] = test system: S. aureus DSM 20231; assay: as above
Outline: as §2

[6] = test system: S. aureus Newman; assay: as above
Outline: as §2

[7] = test system: S. pneumoniae D39V; assay: as above
Outline: as §2
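Wherever Bliss interaction score (quartile over a dose matrix) is given: first quartile when negative (synergy) and third quartile when positive (antagonism).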
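Wherever fitness (endpoint OD595 vs no drug) is given: OD595 on entry to stationary phase over no-drug wells; at most 1.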

CN[C@@H]1[C@H](O)[C@H](NC)[C@H]2O[C@@]3(O)C(=O)C[C@@H](C)O[C@H]3O[C@@H]2[C@H]1O [Spectinomycin] + CN(C)c1cc(NC(=O)CNC(C)(C)C)c(O)c2c1C[C@H]1C[C@H]3[C@H](N(C)C)C(O)=C(C(N)=O)C(=O)[C@@]3(O)C(O)=C1C2=O [Tigecycline]
fitness
Settings | first compound 2 µg/mL | first compound 4 µg/mL | first compound 8 µg/mL | first compound 16 µg/mL
[1], partner 0.039 µg/mL | 0.976 | ≥ 1 | 0.978 | –
[1], partner 0.078 µg/mL | 0.959 | 0.968 | 0.927 | –
[1], partner 0.156 µg/mL | 1 | ≥ 1 | 0.889 | –
[2], partner 0.039 µg/mL | – | 0.912 | 0.918 | 0.904
[2], partner 0.078 µg/mL | – | 0.954 | 0.928 | 0.908
[2], partner 0.156 µg/mL | – | 0.938 | 0.961 | 0.929
[3], partner 0.65 µg/mL | – | 0.951 | 0.896 | 0.747
[3], partner 1.3 µg/mL | – | 0.981 | 0.905 | 0.788
[3], partner 2.6 µg/mL | – | 0.941 | 0.896 | 0.761

fitness, one replicate
Settings | partner 0.039 µg/mL | partner 0.078 µg/mL | partner 0.125 µg/mL | partner 0.156 µg/mL | partner 0.25 µg/mL | partner 0.5 µg/mL
[1], first compound 2 µg/mL | – | – | ≥ 1 | – | 0.994 | 0.937
[1], first compound 4 µg/mL | – | – | ≥ 1 | – | 0.944 | ≥ 1
[1], first compound 8 µg/mL | – | – | 0.941 | – | 0.931 | ≥ 1
[2], first compound 32 µg/mL | 0.592 | 0.585 | – | 0.603 | – | –
[2], first compound 64 µg/mL | 0.105 | 0.0894 | – | 0.1 | – | –

Settings | Bliss interaction score
[4] | 0.043
[5] | -0.0602
[6] | 0.0622
[7] | 0.0451

CN[C@@H]1[C@H](O[C@H]2[C@H](O[C@H]3[C@H](O)[C@@H](O)[C@H](N=C(N)N)[C@@H](O)[C@@H]3N=C(N)N)O[C@@H](C)[C@]2(O)C=O)O[C@@H](CO)[C@H](O)[C@H]1O [Streptomycin] + CN(N=O)C(=O)N[C@@H](C=O)[C@@H](O)[C@H](O)[C@H](O)CO [Streptozotocin]
fitness
Settings | first compound 1 µg/mL | first compound 2 µg/mL | first compound 4 µg/mL | first compound 8 µg/mL
[1], partner 0.15 µg/mL | – | 0.954 | 0.308 | 0.0987
[1], partner 0.3 µg/mL | – | 0.978 | 0.332 | 0.0267
[1], partner 0.6 µg/mL | – | 0.98 | 0.266 | 0.0223
[2], partner 0.15 µg/mL | 0.884 | 0.818 | – | –
[2], partner 0.3 µg/mL | 0.767 | 0.649 | – | –
[2], partner 0.6 µg/mL | 0.555 | 0.485 | 0.473 | –
[3], partner 1.2 µg/mL | – | 0.988 | 0.975 | 0.896
[3], partner 2.4 µg/mL | – | 0.945 | 0.932 | 0.951
[3], partner 4.8 µg/mL | – | 0.954 | 0.958 | 0.903

[3], first compound 16 µg/mL, one replicate
Settings | fitness
partner 1.2 µg/mL | 0.744
partner 2.4 µg/mL | 0.773
partner 4.8 µg/mL | 0.782

Settings | Bliss interaction score
[4] | -0.134
[5] | -0.109
[6] | 0.0357
[7] | 0.062

CN[C@@H]1[C@H](O[C@H]2[C@H](O[C@H]3[C@H](O)[C@@H](O)[C@H](N=C(N)N)[C@@H](O)[C@@H]3N=C(N)N)O[C@@H](C)[C@]2(O)C=O)O[C@@H](CO)[C@H](O)[C@H]1O [Streptomycin] + CN[C@H](CC(C)C)C(=O)N[C@H]1C(=O)N[C@@H](CC(N)=O)C(=O)N[C@H]2C(=O)N[C@H]3C(=O)N[C@H](C(=O)N[C@H](C(=O)O)c4cc(O)cc(O)c4-c4cc3ccc4O)[C@H](O)c3ccc(c(Cl)c3)Oc3cc2cc(c3O[C@@H]2O[C@H](CO)[C@@H](O)[C@H](O)[C@H]2O[C@H]2C[C@](C)(N)[C@H](O)[C@H](C)O2)Oc2ccc(cc2Cl)[C@H]1O [Vancomycin]
fitness
Settings | first compound 1 µg/mL | first compound 2 µg/mL | first compound 4 µg/mL | first compound 8 µg/mL
[2], partner 0.1875 µg/mL | 0.959 | 0.941 | – | –
[2], partner 0.375 µg/mL | 0.952 | 0.946 | – | –
[2], partner 0.75 µg/mL | 0.978 | 0.944 | – | –
[3], partner 0.03125 µg/mL | – | 0.978 | 0.956 | 0.941
[3], partner 0.0625 µg/mL | – | 0.921 | 0.969 | 0.913
[3], partner 0.125 µg/mL | – | 0.942 | 0.942 | –
[3], partner 0.25 µg/mL | – | – | 0.704 | 0.691
[3], partner 0.5 µg/mL | – | – | 0.0741 | 0.0434

fitness, [3], one replicate
Settings | partner 0.125 µg/mL | partner 0.25 µg/mL | partner 0.5 µg/mL
first compound 2 µg/mL | – | 0.422 | 0.0318
first compound 16 µg/mL | 0.825 | 0.112 | 0.0914

Settings | Bliss interaction score
[4] | -0.0393
[5] | 0.0918
[6] | 0.055
[7] | 0.088

CN[C@@H]1[C@H](O[C@H]2[C@H](O[C@H]3[C@H](O)[C@@H](O)[C@H](N=C(N)N)[C@@H](O)[C@@H]3N=C(N)N)O[C@@H](C)[C@]2(O)C=O)O[C@@H](CO)[C@H](O)[C@H]1O [Streptomycin] + CN(C)c1cc(NC(=O)CNC(C)(C)C)c(O)c2c1C[C@H]1C[C@H]3[C@H](N(C)C)C(O)=C(C(N)=O)C(=O)[C@@]3(O)C(O)=C1C2=O [Tigecycline]
fitness
Settings | partner 0.039 µg/mL | partner 0.078 µg/mL | partner 0.156 µg/mL | partner 0.65 µg/mL | partner 1.3 µg/mL | partner 2.6 µg/mL
[1], first compound 2 µg/mL | 0.974 | 0.985 | 0.968 | – | – | –
[2], first compound 1 µg/mL | 0.94 | 0.986 | 0.971 | – | – | –
[2], first compound 2 µg/mL | 0.966 | 0.95 | 0.989 | – | – | –
[3], first compound 2 µg/mL | – | – | – | 0.96 | 0.973 | 0.891
[3], first compound 4 µg/mL | – | – | – | 0.968 | 0.989 | 0.962
[3], first compound 8 µg/mL | – | – | – | 0.88 | 0.938 | 0.914

fitness, one replicate
Settings | partner 0.125 µg/mL | partner 0.25 µg/mL | partner 0.5 µg/mL | partner 0.65 µg/mL | partner 1.3 µg/mL | partner 2.6 µg/mL
[1], first compound 2 µg/mL | 0.98 | 0.955 | 0.951 | – | – | –
[1], first compound 4 µg/mL | 0.982 | 0.914 | ≥ 1 | – | – | –
[1], first compound 8 µg/mL | 0.481 | 0.474 | 0.519 | – | – | –
[3], first compound 16 µg/mL | – | – | – | 0.866 | 0.81 | 0.829

Settings | Bliss interaction score
[4] | 0.145
[5] | 0.064
[6] | 0.0427
[7] | 0.0816

CC[C@H](C)[C@H](N)C1=N[C@H](C(=O)N[C@@H](CC(C)C)C(=O)N[C@H](CCC(=O)O)C(=O)N[C@H](C(=O)N[C@H]2CCCCNC(=O)[C@H](CC(N)=O)NC(=O)[C@@H](CC(=O)O)NC(=O)[C@H](Cc3cnc[nH]3)NC(=O)[C@@H](Cc3ccccc3)NC(=O)[C@H]([C@@H](C)CC)NC(=O)[C@@H](CCCN)NC2=O)[C@@H](C)CC)CS1 [Bacitracin] + CN(C)c1cc(NC(=O)CNC(C)(C)C)c(O)c2c1C[C@H]1C[C@H]3[C@H](N(C)C)C(O)=C(C(N)=O)C(=O)[C@@]3(O)C(O)=C1C2=O [Tigecycline]
fitness, main component drawn
Settings | partner 0.039 µg/mL | partner 0.078 µg/mL | partner 0.156 µg/mL
[1], first compound 37.5 µg/mL | 0.997 | 0.946 | 0.867
[1], first compound 75 µg/mL | ≥ 1 | 0.859 | 0.933
[2], first compound 18.75 µg/mL | 0.705 | 0.707 | 0.724
[2], first compound 75 µg/mL | 0.0511 | 0.058 | 0.0883

fitness, [1], one replicate, main component drawn
Settings | first compound 37.5 µg/mL | first compound 75 µg/mL | first compound 150 µg/mL
partner 0.125 µg/mL | ≥ 1 | ≥ 1 | ≥ 1
partner 0.25 µg/mL | 0.907 | 0.892 | 0.855
partner 0.5 µg/mL | 0.915 | 0.947 | 0.914

main component drawn
Settings | Bliss interaction score
[4] | 0.0848
[5] | 0.0393
[6] | 0.0592
[7] | 0.0672
